Test results taken from patent US20230317203A1, “SCREENING METHOD” (University of Leeds, priority 2022, published 2023).
Read-outs that look alike come from different tables or passages of the source. Blank lines part the entries; values can stand above or below the molecule they belong to.

Experiments:
BRISC [1] = biological target: T1, BRISC (Homo sapiens, UniProt P46736+Q15018+Q9NXR7); assay: IQF K63-linked diUb DUB activity assay, BRISC; assay type: biochemical; parameters: made in house; host or cells: Spodoptera frugiperda (Sf9) insect cells; conditions: for inhibition of BRISC DUB activity: IQF assay, BRISC 1 nM
Experimental: (§1) BRISC complexes were tested for activity in DUB reaction buffer containing 50 mM HEPES-NaOH pH 7.0, 100 mM NaCl, 0.1 mg/mL BSA, 1 mM DTT, and 0.003% Brij-35. […] Inhibitors were assayed at concentrations up to 200 μM. 20 μL enzyme reactions were carried out in 384-well black flat-bottom low flange plates (Corning; 35373). DUB activity was measured using internally quenched fluorescent (IQF) K63-linked diUb (Lifesensors, catalogue number: DU6303) at 50 or 100 nM. Cleaved diUb was monitored by measuring fluorescence intensity (Ex. 540 nm, Em. 580 nm; dichroic mirror 560 nm). Fluorescence intensity was measured every minute for 30 minutes at 30° C. Fluorescence intensity units for the first 10 minutes were plotted against time to generate a linear reaction progress curve, where the initial velocity (v0) corresponds to the gradient of the curve. IC50 values were calculated using the GraphPad Prism (v8.0) built-in dose-response equation for inhibitor concentration vs. response (variable slope).
(§2) A high throughput biochemical screen was designed to identify inhibitors of BRISC, based on the ability of small molecules to inhibit BRISC cleavage of a K63-linked di-ubiquitin substrate. The di-ubiquitin substrate is designed with a fluorescent TAMRA dye on the proximal ubiquitin moiety and fluorescence quencher on the distal ubiquitin molecule (FIG. 1A). Upon isopeptidase bond cleavage, fluorescence is detected, enabling continuous fluorescent readout of deubiquitylase activity over time (FIG. 1A). The assay conditions were optimised and used to test an in-house compound library comprising of ˜300 published and custom-made kinase inhibitors. From this screen, two hits were identified, compounds AT7519 (well H20) and YM201636 (well P12) (FIG. 1B). The specificity of these compounds was assessed against the broad-spectrum DUB ubiquitin-specific protease-2 (USP2) and the serine protease trypsin which cleave K63-Ub substrate under the same conditions. […] UV-Vis spectroscopy analyses of the compound in well H20 used in the screen compared to the Synkinase and Sellechem AT7519 compounds identified an additional peak in the H20 spectra (FIG. 5C). […] The synthesis of the two isomers was confirmed using mass spectrometry fragmentation analyses (FIG. 5E) and the inhibitory effect of the isomers was tested against BRISC.

USP2 = USP2 (Homo sapiens, UniProt O75604); assay: IQF di-ubiquitin assay, USP2 specificity; assay type: biochemical; conditions: USP2 100 nM, K63-Ub substrate
Chain of USP2 (O75604 whole entry, species assumed): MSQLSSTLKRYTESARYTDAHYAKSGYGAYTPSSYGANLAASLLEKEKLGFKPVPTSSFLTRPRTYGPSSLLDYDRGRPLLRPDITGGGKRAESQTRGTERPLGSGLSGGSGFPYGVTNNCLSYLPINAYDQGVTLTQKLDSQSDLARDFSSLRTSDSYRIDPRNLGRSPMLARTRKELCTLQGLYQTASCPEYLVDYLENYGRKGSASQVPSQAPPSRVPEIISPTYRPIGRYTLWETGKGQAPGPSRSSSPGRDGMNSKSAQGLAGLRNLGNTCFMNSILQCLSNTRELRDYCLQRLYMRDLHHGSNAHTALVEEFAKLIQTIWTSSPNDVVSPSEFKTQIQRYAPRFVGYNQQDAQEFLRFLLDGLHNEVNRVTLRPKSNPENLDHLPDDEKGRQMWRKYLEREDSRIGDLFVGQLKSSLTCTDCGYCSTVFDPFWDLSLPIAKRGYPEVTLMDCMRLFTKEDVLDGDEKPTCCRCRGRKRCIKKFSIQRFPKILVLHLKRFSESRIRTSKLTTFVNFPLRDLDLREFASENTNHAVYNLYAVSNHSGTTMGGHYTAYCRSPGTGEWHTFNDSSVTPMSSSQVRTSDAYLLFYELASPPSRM
Description: (§3) FIGS. 5A-5E show validation of hit compounds.
as §2

Trypsin = assay: IQF di-ubiquitin assay, trypsin specificity; assay type: biochemical; conditions: Trypsin 125 nM, K63-Ub substrate
Description: as §3, §2

BRISC(FL) = biological target: T2, BRISC(FL) (Homo sapiens, UniProt P46736+Q15018+Q9NXR7); assay: Native mass spectrometry of BRISC with inhibitor; assay type: binding; conditions: 10 μM BRISC(FL), 1 mM inhibitor
T2 construct: The four-subunit human BRISC (full-length (FL) and MERIT40ΔN, Abraxas2ΔC) complex was cloned; made in house; host or cells: Spodoptera frugiperda (Sf9) insect cells
Experimental: Samples were buffer exchanged into 500 mM ammonium acetate using Zeba Spin 7K MWCO desalting columns (ThermoFisher). Gold and palladium coated nanospray tips were prepared in-house and mounted on the nano-electrospray ionisation source. Mass spectra were acquired on a Q Exactive Ultra-High Mass Range Hybrid Quadrupole-Orbitrap mass spectrometer (Thermo Fisher), optimised for mass resolution at high m/z ratios. Data were visualised and processed using Mass Lynx (v4.1) and UniDec (v2.7.1).

BRISC [2] = biological target: T1, BRISC; assay: Mass photometry of BRISC oligomeric state; assay type: binding; conditions: purified BRISC mixed with inhibitor, FIG. 2B
Experimental: (§4) Microscope coverslips were prepared as previously described^33. All mass photometry experiments were performed using a One^MP mass photometer (Refeyn Ltd, Oxford, UK). For preliminary BRISC-inhibitor measurements, 1 μM BRISC(FL) was mixed with either DMSO or inhibitor at 330 μM and incubated for 15 minutes on ice. Prior to MP measurement, the BRISC-inhibitor mix was diluted in gel filtration buffer (25 mM HEPES, 150 mM NaCl, 1 mM TCEP) for a final concentration of BRISC at 10 nM (0.05% DMSO). 12 μL of this dilution was used for the final MP measurement, following autofocus stabilisation. […] The BRISC-inhibitor mix was used directly for MP measurement using buffer-free autofocus stabilisation. Movies were recorded for 60 seconds using AcquireMP (Refeyn, UK), and were processed using DiscoverMP (Refeyn, UK). Mass photometry image processing has been previously described^33. Briefly, contrast-to-mass (C2M) calibration was performed using protein standards (66-669 kDa) diluted in gel filtration buffer. […] The mass distribution from each run is in a histogram, where count refers to each landing event and a Gaussian sum is fitted to the data. The relative amount of each species is calculated as the area of each Gaussian, where a refers to the standard deviation of the fitted Gaussian. […] Curves were fitted and EC50 values were calculated using the GraphPad Prism (v8.0) built-in dose-response equation for concentration of agonist vs. response (variable slope).

BRISC [3] = assay: Mass photometry of BRISC oligomeric state; assay type: binding, human; conditions: mass photometry
Experimental: as §4

ARISC-RAP80 = ARISC-RAP80 (Homo sapiens, UniProt P46736+Q6UWZ7+Q9NXR7); assay: IQF assay with ARISC-RAP80; assay type: biochemical; conditions: FIG. 1E
Description: (§5) FIGS. 1A-1F show the development a high-throughput screen to identify first-in-class DUB inhibitors. FIG. 1A depicts a diagram of a TAMRA-linked IQF di-ubiquitin substrate (left) and BRISC DUB activity against a fluorescent K63-linked substrate (right).

AMSH-LP = biological target: T3, AMSH-LP (Homo sapiens, UniProt Q96FJ0); assay: IQF assay with JAMM/MPN DUB AMSH-LP; assay type: biochemical; conditions: FIG. 1E
T3 sequence (Q96FJ0 1-436): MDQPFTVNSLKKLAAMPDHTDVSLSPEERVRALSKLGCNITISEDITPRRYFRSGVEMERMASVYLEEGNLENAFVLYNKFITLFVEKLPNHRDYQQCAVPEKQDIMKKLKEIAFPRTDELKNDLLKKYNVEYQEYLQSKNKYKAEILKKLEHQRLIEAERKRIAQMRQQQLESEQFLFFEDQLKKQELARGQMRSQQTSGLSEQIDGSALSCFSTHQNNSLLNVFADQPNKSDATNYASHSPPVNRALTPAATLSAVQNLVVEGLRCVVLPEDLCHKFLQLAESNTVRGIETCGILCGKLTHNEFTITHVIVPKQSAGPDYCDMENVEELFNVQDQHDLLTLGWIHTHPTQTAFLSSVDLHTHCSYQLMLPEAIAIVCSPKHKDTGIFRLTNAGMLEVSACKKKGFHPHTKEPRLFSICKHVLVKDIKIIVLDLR
Description: as §5

ARISC = ARISC (Homo sapiens, UniProt P46736+Q6UWZ7+Q9NXR7); assay: IQF assay with ARISC; assay type: biochemical; conditions: FIG. 1E
Description: as §5

BRISC [4] = biological target: T1, BRISC; parameters: made in house; host or cells: Spodoptera frugiperda (Sf9) insect cells; conditions: BRISC WT, reference 13; cited from earlier work
BRISC BRCC36 Trp130Ala = BRISC BRCC36 Trp130Ala (Homo sapiens, UniProt P46736+Q15018+Q9NXR7, W130A); assay: IQF DUB assay, BRISC mutant BRCC36 Trp130Ala; assay type: biochemical; conditions: FIG. 4C
Experimental: (§6) The four-subunit human BRISC (full-length (FL) and MERIT40ΔN, Abraxas2ΔC) complex was cloned using the MultiBac system and co-expressed in Spodoptera frugiperda (Sf9) insect cells^32. BRISC mutants were cloned into pFastBac vectors in the Bac-to-Bac system (ThermoFisher), baculoviruses generated in Sf9 cells and used for co-infection of Trichoplusia ni (Tni) cells. All BRISC complexes were purified as previously described^12,13.
as §1, with “20 μL enzyme reactions were carried out in 384-well black flat-bottom low flange plates (Corning; 35373).” left out, “slope). […]” for “slope).”

BRISC BRCC36 Leu169Ala = BRISC BRCC36 Leu169Ala (Homo sapiens, UniProt P46736+Q15018+Q9NXR7, L169A); assay: IQF DUB assay, BRISC mutant BRCC36 Leu169Ala; assay type: biochemical; conditions: FIG. 4C
Experimental: as §6
as §1, with “20 μL enzyme reactions were carried out in 384-well black flat-bottom low flange plates (Corning; 35373).” left out, “slope). […]” for “slope).”

BRISC Abraxas2 Thr140Ala = BRISC Abraxas2 Thr140Ala (Homo sapiens, UniProt P46736+Q15018+Q9NXR7, T140A); assay: IQF DUB assay, BRISC mutant Abraxas2 Thr140Ala; assay type: biochemical; conditions: FIG. 4C
Experimental: as §6
as §1, with “20 μL enzyme reactions were carried out in 384-well black flat-bottom low flange plates (Corning; 35373).” left out, “slope). […]” for “slope).”

Molecule: O=C(NC1CCNCC1)c1[nH]ncc1NC(=O)c1c(Cl)cccc1Cl [AT7519, reference compound]
- inhibition of BRISC DUB activity (BRISC [1]): neither were found to inhibit

Molecule: O=C(NC1CCN(C(=O)c2c(Cl)cccc2Cl)CC1)c1n[nH]cc1NC(=O)c1c(Cl)cccc1Cl [AP-5-144]
- inhibition of BRISC DUB activity (BRISC [1]): no inhibition

Continued, in another order:

- inhibition of BRISC DUB activity (BRISC [1]): inhibited
- inhibition of USP2 (USP2): inhibited
Molecule: Nc1ccc(C(=O)Nc2cccc(-c3nc(N4CCOCC4)c4oc5ncccc5c4n3)c2)cn1 [YM201636]
- inhibition of trypsin (Trypsin): inhibited

- IC50 (BRISC [1]; IQF K63-linked diUb substrate, FIG. 1D, read-out: IC50 inhibiting BRISC): 1500 nM
- inhibition of BRISC DUB activity (BRISC [1]): specific inhibition
- mass photometry counts, 1:1:1:1 complex (BRISC [2]): 8%
- mass photometry counts, dimer (BRISC [2]): 69%
- mass photometry counts, monomer (BRISC [2]): 14%
- specificity for BRISC over ARISC-RAP80 (ARISC-RAP80): specifically inhibits BRISC over
- inhibition of AMSH-LP (AMSH-LP): no inhibition
- specificity for BRISC over ARISC (ARISC): specifically inhibits BRISC over
Molecule: O=C(NC1CCNCC1)c1nn(C(=O)c2c(Cl)cccc2Cl)cc1NC(=O)c1c(Cl)cccc1Cl [JMS-175-2]
- BRISC species by native mass spectrometry (BRISC(FL)): BRISC dimers with a MW consistent with a 4:4:4:4 stoichiometry were observed
- dimer formation at increasing inhibitor concentration (BRISC [3]): dose-dependent increase in dimer formation

- inhibition in the presence of SHMT2 (BRISC BRCC36 Trp130Ala): reduced inhibition
- inhibition in the presence of SHMT2 (BRISC BRCC36 Leu169Ala): reduced inhibition
- inhibition in the presence of SHMT2 (BRISC Abraxas2 Thr140Ala): reduced inhibition
B1: serine hydroxymethyltransferase (protein)
chain: QLVRMAIRAQHSNAAQTQTGEANRGWTGQESLSDSDPEMWELLQREKDRQCRGLELIASENFCSRAALEALGSCLNNKYSEGYPGKRYYGGAEVVDEIELLCQRRALEAFDLDPAQWGVNVQPYSGSPANLAVYTALLQPHDRIMGLDLPDGGHLTHGYMSDVKRISATSIFFESMPYKLNPKTGLIDYNQLALTARLFRPRLIIAGTSAYARLIDYARMREVCDEVKAHLLADMAHISGLVAAKVIPSPFKHADIVTTTTHKTLRGARSGLIFYRKGVKAVDPKTGREIPYTFEDRINFAVFPSLQGGPHNHAIAAVAVALKQACTPMFREYSLQVLKNARAMADALLERGYSLVSGGTDNHLVLVDLRPKGLDGARAERVLELVSITANKNTCPGDRSAITPGGLRLGAPALTSRQFREDDFRRVVDFIDEGVNIGLEVKSKTAKLQDFKSFLLKDSETSQRLANLRQRVEQFARAFPMPGFDEH
- inhibition of BRISC DUB activity (BRISC [4]): potent inhibitor
